# Experimental data reported in patent publication US9371320B2, “Heterocyclic compound” (TAKEDA PHARMACEUTICAL COMPANY LIMITED, priority 2012, dated 2016).
# Experiments:
# JAK1 = molecular target: T1, JAK1 (Homo sapiens, UniProt P23458); experiment: JAK1 enzyme inhibition test (LANCE method); format: biochemical; conditions: for inhibition at 1 µM: read-out: Inhibitory rate (%) JAK1 1 μM; for inhibition at 10 µM: test compound 10 μM, read-out: Inhibitory rate (%) JAK1 10 μM
# T1 construct: purchased Invitrogen
# Protocol: JAK1 Enzyme Inhibition Test
# (§1) JAK1 enzyme inhibitory activity of test compounds was measured by LANCE method (PerkinElmer). First, a test compound diluted with assay buffer (50 mM HEPES (pH=7.5), 10 mM MgCl2, 1 mM EGTA, 2 mM DTT, 0.01% Tween20, 0.01% BSA) was added to 384-well plate at 2 μL each. Then, a JAK1 (Invitrogen) solution and a fluorescence-labeled peptide substrate (ULight-JAK1, PerkinElmer) solution diluted with assay buffer at 187.5 ng/mL and 300 nM, respectively were added at 2 μL each. Then, enzyme reaction was started by adding 2 μL each of ATP solution prepared with assay buffer at 150 μM. After the reaction at room temperature for 1 hr, Detection Buffer (PerkinElmer) prepared to be 20 mM EDTA, 4 nM europium-labeled anti-phosphotyrosine antibody (PerkinElmer) was added at 6 μL each. After standing at room temperature for 1 hr, fluorescence intensity (excitation wavelength 340 nm, fluorescence wavelength 665 nm, delay time 100 microsecond) was measured by a plate reader, Envision (PerkinElmer). The inhibitory activity of each compound was calculated as relative value where fluorescence intensity of a well without enzyme is considered as 100% inhibition.
# Tyk2 = molecular target: T2, Tyk2 (Homo sapiens, UniProt P29597); experiment: Tyk2 enzyme inhibition test (LANCE method); format: biochemical; conditions: for inhibition at 1 µM: read-out: Inhibitory rate (%) Tyk2 1 μM; for inhibition at 10 µM: test compound 10 μM, read-out: Inhibitory rate (%) Tyk2 10 μM
# T2 construct: purchased Invitrogen
# Protocol: Tyk2 Enzyme Inhibition Test
# as §1, with “Tyk2 enzyme” for “JAK1 enzyme”, “a Tyk2” for “a JAK1”, “at 375” for “at 187.5”, “at 30” for “at 150”
# T1 sequence (P23458 whole entry): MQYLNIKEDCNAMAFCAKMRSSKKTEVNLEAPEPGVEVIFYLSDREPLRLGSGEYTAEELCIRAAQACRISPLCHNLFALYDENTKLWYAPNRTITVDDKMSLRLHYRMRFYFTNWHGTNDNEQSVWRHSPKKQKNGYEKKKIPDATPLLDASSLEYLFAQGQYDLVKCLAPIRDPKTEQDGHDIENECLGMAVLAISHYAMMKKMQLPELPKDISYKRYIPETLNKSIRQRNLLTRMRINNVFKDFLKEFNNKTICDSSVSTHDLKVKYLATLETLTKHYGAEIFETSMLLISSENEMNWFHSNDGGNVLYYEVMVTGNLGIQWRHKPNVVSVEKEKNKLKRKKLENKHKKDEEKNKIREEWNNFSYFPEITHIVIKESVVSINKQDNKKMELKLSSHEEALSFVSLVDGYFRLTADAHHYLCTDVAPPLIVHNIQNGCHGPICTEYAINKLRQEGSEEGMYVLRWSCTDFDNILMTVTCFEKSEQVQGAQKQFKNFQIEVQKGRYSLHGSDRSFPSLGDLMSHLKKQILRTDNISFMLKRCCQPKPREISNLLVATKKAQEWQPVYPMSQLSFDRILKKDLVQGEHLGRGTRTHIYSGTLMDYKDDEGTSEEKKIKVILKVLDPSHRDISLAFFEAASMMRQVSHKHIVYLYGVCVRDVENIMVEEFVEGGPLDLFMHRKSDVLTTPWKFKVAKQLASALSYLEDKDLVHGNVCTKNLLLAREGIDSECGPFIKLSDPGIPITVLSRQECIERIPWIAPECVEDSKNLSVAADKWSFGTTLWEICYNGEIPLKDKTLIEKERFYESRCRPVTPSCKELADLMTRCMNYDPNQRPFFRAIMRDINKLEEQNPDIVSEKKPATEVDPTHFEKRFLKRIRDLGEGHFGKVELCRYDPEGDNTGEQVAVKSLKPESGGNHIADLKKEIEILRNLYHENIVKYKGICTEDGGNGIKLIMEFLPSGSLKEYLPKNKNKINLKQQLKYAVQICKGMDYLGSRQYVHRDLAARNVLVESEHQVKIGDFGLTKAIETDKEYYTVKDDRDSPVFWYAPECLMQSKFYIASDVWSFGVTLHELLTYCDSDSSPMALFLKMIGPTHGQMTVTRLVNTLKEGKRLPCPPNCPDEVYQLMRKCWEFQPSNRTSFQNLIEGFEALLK
# T2 sequence (P29597 whole entry): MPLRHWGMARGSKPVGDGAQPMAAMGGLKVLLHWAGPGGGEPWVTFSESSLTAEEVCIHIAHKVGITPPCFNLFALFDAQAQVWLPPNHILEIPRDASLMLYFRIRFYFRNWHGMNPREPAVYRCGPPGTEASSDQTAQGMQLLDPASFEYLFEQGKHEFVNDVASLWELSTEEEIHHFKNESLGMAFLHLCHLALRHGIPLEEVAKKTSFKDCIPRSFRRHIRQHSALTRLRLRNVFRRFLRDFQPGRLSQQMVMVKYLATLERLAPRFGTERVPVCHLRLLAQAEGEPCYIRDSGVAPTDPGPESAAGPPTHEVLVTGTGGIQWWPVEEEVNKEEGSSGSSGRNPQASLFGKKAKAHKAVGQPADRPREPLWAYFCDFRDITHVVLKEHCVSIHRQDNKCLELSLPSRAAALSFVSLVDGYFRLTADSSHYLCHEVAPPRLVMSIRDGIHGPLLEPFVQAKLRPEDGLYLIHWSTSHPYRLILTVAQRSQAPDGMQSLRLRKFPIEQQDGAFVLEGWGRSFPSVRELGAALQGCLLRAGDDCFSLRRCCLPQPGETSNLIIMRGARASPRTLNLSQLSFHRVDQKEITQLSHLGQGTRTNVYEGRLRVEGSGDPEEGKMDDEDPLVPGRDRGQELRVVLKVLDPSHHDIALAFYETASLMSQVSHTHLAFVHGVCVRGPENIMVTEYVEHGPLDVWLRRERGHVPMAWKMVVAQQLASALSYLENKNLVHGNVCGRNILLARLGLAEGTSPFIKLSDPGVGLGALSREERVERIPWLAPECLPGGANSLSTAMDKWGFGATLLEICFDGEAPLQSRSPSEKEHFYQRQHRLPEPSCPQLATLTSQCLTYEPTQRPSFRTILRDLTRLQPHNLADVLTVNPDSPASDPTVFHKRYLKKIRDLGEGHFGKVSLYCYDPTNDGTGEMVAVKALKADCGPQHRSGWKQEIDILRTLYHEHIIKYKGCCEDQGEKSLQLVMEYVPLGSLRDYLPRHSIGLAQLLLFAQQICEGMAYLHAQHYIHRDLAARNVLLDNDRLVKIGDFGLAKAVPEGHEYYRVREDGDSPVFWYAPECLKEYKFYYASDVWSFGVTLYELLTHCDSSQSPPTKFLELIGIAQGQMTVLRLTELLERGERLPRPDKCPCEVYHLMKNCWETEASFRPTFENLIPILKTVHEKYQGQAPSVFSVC
inhibition at 1 µM (JAK1; test compound 1 μM) [%],inhibition at 1 µM (Tyk2; test compound 1 μM) [%],Structure (SMILES),also measured
98,98,"NC(=O)c1cc(-c2nn(C3CCOCC3)c3cc[nH]c(=O)c23)cs1 [Example 27, 4-(4-oxo-1-(tetrahydro-2H-pyran-4-yl)-4,5-dihydro-1H-pyrazolo[4,3-c]pyridin-3-yl)thiophene-2-carboxamide]",
,,"NS(=O)(=O)c1ccc(-c2nn(C3CCCOC3)c3cc[nH]c(=O)c23)cc1 (stereo not shown) [Example 28, 4-(4-oxo-1-(tetrahydro-2H-pyran-3-yl)-4,5-dihydro-1H-pyrazolo[4,3-c]pyridin-3-yl)benzenesulfonamide]",Inhibitory rate (%) JAK1 1 μM (JAK1; test compound 1 μM): 99%; Inhibitory rate (%) Tyk2 1 μM (Tyk2; test compound 1 μM): 97%
14,83,"COC(=O)c1c[nH]c(=O)c2c(-c3ccc(C(N)=O)cc3)cn(C3CCCC3)c12 [Example 29, methyl 3-(4-carbamoylphenyl)-1-cyclopentyl-4-oxo-4,5-dihydro-1H-pyrrolo[3,2-c]pyridine-7-carboxylate]",
94,92,"NS(=O)(=O)c1ccc(-c2nn(-c3ccccc3)c3cc[nH]c(=O)c23)cc1 [Example 30, 4-(4-oxo-1-phenyl-4,5-dihydro-1H-pyrazolo[4,3-c]pyridin-3-yl)benzenesulfonamide]",
95,90,"NS(=O)(=O)c1ccc(-c2cn([C@H]3CC[C@H](O)CC3)c3cc[nH]c(=O)c23)cc1 [Example 31, 4-(1-(trans-4-hydroxycyclohexyl)-4-oxo-4,5-dihydro-1H-pyrrolo[3,2-c]pyridin-3-yl)benzenesulfonamide]",
98,95,"NS(=O)(=O)c1ccc(-c2cn([C@H]3CC[C@@H](O)CC3)c3cc[nH]c(=O)c23)cc1 [Example 32, 4-(1-(cis-4-hydroxycyclohexyl)-4-oxo-4,5-dihydro-1H-pyrrolo[3,2-c]pyridin-3-yl)benzenesulfonamide]",
99,99,"N#Cc1c[nH]c(=O)c2c(-c3csc(C(N)=O)c3)cn(C3CCCC3)c12 [Example 33, 4-(7-cyano-1-cyclopentyl-4-oxo-4,5-dihydro-1H-pyrrolo[3,2-c]pyridin-3-yl)thiophene-2-carboxamide]",
92,99,"COC(=O)c1c[nH]c(=O)c2c(-c3csc(C(N)=O)c3)cn(C3CCCC3)c12 [Example 34, methyl 3-(5-carbamoyl-3-thienyl)-1-cyclopentyl-4-oxo-4,5-dihydro-1H-pyrrolo[3,2-c]pyridine-7-carboxylate]",
99,97,"NS(=O)(=O)c1ccc(-c2nn(-c3c(F)cccc3F)c3cc[nH]c(=O)c23)cc1 [Example 35, 4-(1-(2,6-difluorophenyl)-4-oxo-4,5-dihydro-1H-pyrazolo[4,3-c]pyridin-3-yl)benzenesulfonamide]",
97,98,"COC(=O)c1cc(-c2nn(-c3c(F)cccc3F)c3cc[nH]c(=O)c23)cs1 [Example 36, methyl 4-(1-(2,6-difluorophenyl)-4-oxo-4,5-dihydro-1H-pyrazolo[4,3-c]pyridin-3-yl)thiophene-2-carboxylate]",
99,99,"O=C(O)c1cc(-c2nn(-c3c(F)cccc3F)c3cc[nH]c(=O)c23)cs1 [Example 37, 4-(1-(2,6-difluorophenyl)-4-oxo-4,5-dihydro-1H-pyrazolo[4,3-c]pyridin-3-yl)thiophene-2-carboxylic acid]",
100,99,"NC(=O)c1cc(-c2nn(-c3c(F)cccc3F)c3cc[nH]c(=O)c23)cs1 [Example 38, 4-(1-(2,6-difluorophenyl)-4-oxo-4,5-dihydro-1H-pyrazolo[4,3-c]pyridin-3-yl)thiophene-2-carboxamide]",
99,98,"N#CCc1ccc(-c2nn(-c3c(F)cccc3F)c3cc[nH]c(=O)c23)cc1 [Example 39, (4-(1-(2,6-difluorophenyl)-4-oxo-4,5-dihydro-1H-pyrazolo[4,3-c]pyridin-3-yl)phenyl)acetonitrile]",
78,78,"NC(=O)c1cc(-c2cn(C3CCCC3)c3c(CO)c[nH]c(=O)c23)cs1 [Example 40, 4-(1-cyclopentyl-7-(hydroxymethyl)-4-oxo-4,5-dihydro-1H-pyrrolo[3,2-c]pyridin-3-yl)thiophene-2-carboxamide]",
,,"O=c1[nH]ccc2c1c(C1=CCCCC1)nn2C1CCCC1 [Example 41, 3-(cyclohex-1-en-1-yl)-1-cyclopentyl-1,5-dihydro-4H-pyrazolo[4,3-c]pyridin-4-one]",inhibition at 10 µM (JAK1): 38%; inhibition at 10 µM (Tyk2): 49%
53,51,"O=c1[nH]ccc2c1c(C1=CCOCC1)nn2C1CCCC1 [Example 42, 1-cyclopentyl-3-(3,6-dihydro-2H-pyran-4-yl)-1,5-dihydro-4H-pyrazolo[4,3-c]pyridin-4-one]",
87,91,"O=c1[nH]ccc2c1c(-c1ccccc1)nn2C1CCCC1 [Example 43, 1-cyclopentyl-3-phenyl-1,5-dihydro-4H-pyrazolo[4,3-c]pyridin-4-one]",
94,91,"O=c1[nH]ccc2c1c(-c1ccncc1)nn2C1CCCC1 [Example 44, 1-cyclopentyl-3-(pyridin-4-yl)-1,5-dihydro-4H-pyrazolo[4,3-c]pyridin-4-one]",
90,74,"O=c1[nH]ccc2c1c(-c1ccc(OC(F)(F)F)cc1)nn2C1CCCC1 [Example 45, 1-cyclopentyl-3-(4-(trifluoromethoxy)phenyl)-1,5-dihydro-4H-pyrazolo[4,3-c]pyridin-4-one]",
91,95,"COc1ccc(-c2nn(C3CCCC3)c3cc[nH]c(=O)c23)cc1 [Example 46, 1-cyclopentyl-3-(4-methoxyphenyl)-1,5-dihydro-4H-pyrazolo[4,3-c]pyridin-4-one]",
62,71,"COc1cccc(-c2nn(C3CCCC3)c3cc[nH]c(=O)c23)c1 [Example 47, 1-cyclopentyl-3-(3-methoxyphenyl)-1,5-dihydro-4H-pyrazolo[4,3-c]pyridin-4-one]",
3,7,"COc1ccccc1-c1nn(C2CCCC2)c2cc[nH]c(=O)c12 [Example 48, 1-cyclopentyl-3-(2-methoxyphenyl)-1,5-dihydro-4H-pyrazolo[4,3-c]pyridin-4-one]",
85,89,"O=c1[nH]ccc2c1c(-c1ccc3c(c1)OCO3)nn2C1CCCC1 [Example 49, 3-(1,3-benzodioxol-5-yl)-1-cyclopentyl-1,5-dihydro-4H-pyrazolo[4,3-c]pyridin-4-one]",
92,92,"Cc1ccc(-c2nn(C3CCCC3)c3cc[nH]c(=O)c23)cc1 [Example 50, 1-cyclopentyl-3-(4-methylphenyl)-1,5-dihydro-4H-pyrazolo[4,3-c]pyridin-4-one]",
90,84,"O=c1[nH]ccc2c1c(-c1ccc(C(F)(F)F)cc1)nn2C1CCCC1 [Example 51, 1-cyclopentyl-3-(4-(trifluoromethyl)phenyl)-1,5-dihydro-4H-pyrazolo[4,3-c]pyridin-4-one]",
43,46,"O=c1[nH]ccc2c1c(-c1cccc(C(F)(F)F)c1)nn2C1CCCC1 [Example 52, 1-cyclopentyl-3-(3-(trifluoromethyl)phenyl)-1,5-dihydro-4H-pyrazolo[4,3-c]pyridin-4-one]",
,,"O=c1[nH]ccc2c1c(-c1ccccc1C(F)(F)F)nn2C1CCCC1 [Example 53, 1-cyclopentyl-3-(2-(trifluoromethyl)phenyl)-1,5-dihydro-4H-pyrazolo[4,3-c]pyridin-4-one]",inhibition at 10 µM (JAK1): 10%; inhibition at 10 µM (Tyk2): 28%
91,91,"O=c1[nH]ccc2c1c(-c1ccc(F)cc1)nn2C1CCCC1 [Example 54, 1-cyclopentyl-3-(4-fluorophenyl)-1,5-dihydro-4H-pyrazolo[4,3-c]pyridin-4-one]",
78,85,"O=c1[nH]ccc2c1c(-c1cccc(F)c1)nn2C1CCCC1 [Example 55, 1-cyclopentyl-3-(3-fluorophenyl)-1,5-dihydro-4H-pyrazolo[4,3-c]pyridin-4-one]",
